Values after ≈ are worked out from the molar mass of the structure shown.
Legend:
Experiment in all cases: ≥ marks a high value that may be exact or a test limit, other limits are often not marked, values filed in µg/mL are converted to µM
[1] = tested on: Staphylococcus aureus KCTC 1621
[2] = tested on: Aspergillus fumigatus KCTC 4165
[3] = tested on: Escherichia coli KCTC 1682
[4] = tested on: Bacillus subtilis KCTC 1918
[5] = tested on: Streptococcus pyogenes KCTC 3096
[6] = tested on: Pseudomonas aeruginosa KCTC 1637
[7] = tested on: Candida albicans TIMM 1768
[8] = tested on: Salmonella typhimurium KCTC 1926
Staphylococcus aureus = tested on: Staphylococcus aureus
Pseudomonas alginovora = tested on: Pseudomonas alginovora
Escherichia coli D31 = tested on: Escherichia coli D31
Aerococcus viridans = tested on: Aerococcus viridans
Escherichia coli D22 = tested on: Escherichia coli D22
Bacillus megaterium = tested on: Bacillus megaterium
Micrococcus luteus = tested on: Micrococcus luteus
[9] = tested on: Pseudoalteromonas carrageenovora ATCC 43555
Escherichia coli 1106 = tested on: Escherichia coli 1106
Enterococcus faecalis = tested on: Enterococcus faecalis
Salmonella typhimurium = tested on: Salmonella typhimurium

| MIC [1] [µM] | MIC [2] [µM] | MIC [3] [µM] | MIC [4] [µM] | MIC [5] [µM] | MIC [6] [µM] | MIC [7] [µM] | MIC [8] [µM] | MIC (Staphylococcus aureus) [µM] | MIC (Pseudomonas alginovora) [µM] | MIC (Escherichia coli D31) [µM] | MIC (Aerococcus viridans) [µM] | MIC (Escherichia coli D22) [µM] | MIC (Bacillus megaterium) [µM] | MIC (Micrococcus luteus) [µM] | MIC [9] [µM] | MIC (Escherichia coli 1106) [µM] | MIC (Enterococcus faecalis) [µM] | MIC (Salmonella typhimurium) [µM] | Structure (SMILES) |
| --- | --- | --- | --- | --- | --- | --- | --- | --- | --- | --- | --- | --- | --- | --- | --- | --- | --- | --- | --- |
| ≥ 50 | ≥ 100 | ≥ 50 | ≥ 50 | ≥ 50 | 12.5 (≈ 26.8 µg/mL) | ≥ 50 | 12.5 (≈ 26.8 µg/mL) |  |  |  |  |  |  |  |  |  |  |  | CCC(C)C(NC(=O)C(CCCCN)NC(=O)C(CCCCN)NC(=O)C(CC(C)C)NC(=O)C(CCCCN)NC(=O)C(CCC(=O)O)NC(=O)CN)C(=O)NCC(=O)NC(CCC(N)=O)C(=O)NC(CCCCN)C(=O)NC(C(=O)NC(CCCCN)C(=O)NC(CC(N)=O)C(=O)NC(Cc1ccccc1)C(=O)NC(Cc1ccccc1)C(=O)NC(CCC(N)=O)C(=O)NC(CCCCN)C(=O)NC(CC(C)C)C(=O)O)C(C)CC (centres undefined) [GEKLKKIGQKIKNFFQKL] |
|  |  |  |  |  |  |  |  | 1.41 (≈ 3.37 µg/mL) | 14.1 (≈ 33.7 µg/mL) | 1.41 (≈ 3.37 µg/mL) | 0.707 (≈ 1.68 µg/mL) | 1.41 (≈ 3.37 µg/mL) | 0.707 (≈ 1.68 µg/mL) | 0.707 (≈ 1.68 µg/mL) | 7.07 (≈ 16.8 µg/mL) | 1.41 (≈ 3.37 µg/mL) | 12.6 (≈ 30.1 µg/mL) | 2.83 (≈ 6.74 µg/mL) | CC[C@H](C)[C@H](NC(=O)CN)C(=O)NCC(=O)N[C@@H](CCCCN)C(=O)N[C@@H](Cc1ccccc1)C(=O)N[C@@H](CC(C)C)C(=O)N[C@@H](CCCCN)C(=O)N[C@@H](CCCCN)C(=O)N[C@@H](C)C(=O)N[C@@H](CCCCN)C(=O)N[C@@H](CCCCN)C(=O)N[C@@H](Cc1ccccc1)C(=O)NCC(=O)N[C@@H](CCCCN)C(=O)N[C@@H](C)C(=O)N[C@@H](Cc1ccccc1)C(=O)N[C@H](C(=O)N[C@@H](CCCCN)C(=O)N[C@@H](CCSC)C(=O)N[C@@H](CCCCN)C(=O)N[C@@H](CCCCN)C(N)=O)C(C)C [GIGKFLKKAKKFGKAFVKMKK] |
